Source: patent US20240025910A1, “BRAIN-MIGRATING TUMOR THERAPEUTIC AGENT CONTAINING FUSED PYRIMIDINE COMPOUND AS ACTIVE INGREDIENT” (TAIHO PHARMACEUTICAL CO., LTD., priority 2020, published 2024)

Key:
[1] = Evaluation of brain penetration property (Kp, Kp,uu) after single oral dose; type: in vivo; conditions: BALB/cAJcl-nu/nu; for Kp at 1 h: mouse, ratio of compound concentrations in brain/plasma, mice, 1 hour after administration, Kp of 0.1 or more judged brain penetrable; for Kp uu at 1 h: ratio of unbound compound concentrations in brain/plasma, using mouse plasma and brain protein unbound ratios of Test Example 1, mice, 0.3 or more judged excellent
Description: Compounds shown in Tables 1 to 4 were added to mouse plasma at a final concentration of 1 μmol/L. The resultant compound-added mouse plasma was added to the donor side of an equilibrium dialysis device (HTDialysis) in which an equilibrium dialysis membrane was set. An equal amount of PBS was added to the receiver side of the device, and after incubation in a 10% CO2 incubator for 6 hours, the compounds on the donor side and the receiver side were detected with the LC-MS/MS. The unbound ratio of each compound to plasma protein was calculated from the ratio of the compound peak area of the receiver side to that of the donor side.
The unbound ratio of each compound to brain protein was calculated in the same manner as above except that: the compound was added to a mouse brain homogenate instead of the mouse plasma; and a dilution ratio was taken into consideration in the calculation of the unbound ratio. In this case, the mouse brain homogenate was obtained by adding a 3-fold amount of PBS to the mouse brain, and then homogenizing the mixture through use of an ultrasonic homogenizer.
The compounds shown in Tables 1 to 4 were dissolved or suspended in 0.5% HPMC, 0.1N hydrochloric acid, and orally administered in a single dose to BALB/cAJcl-nu/nu mice (CLEA Japan, Inc.) untreated, or subcutaneously implanted with TT cells, or subcutaneously implanted with the BaF3/KIF5B-RET_RFP cell line. […] Thus, blood and brain samples were obtained. The obtained blood sample was centrifuged to obtain a plasma sample. A 3-fold amount of water was added to the obtained brain sample, and then the mixture was homogenized through use of an ultrasonic homogenizer to obtain a brain homogenate.
Compound concentrations in the obtained plasma and in the brain homogenate were measured with the LC-MS/MS, and the compound concentration in the brain homogenate was multiplied by a factor of 4 to calculate a compound concentration in the brain. A Kp value was calculated from the ratio of the compound concentrations in the brain/plasma. Unbound compound concentrations in the plasma and in the brain were calculated from the plasma protein unbound ratio and brain protein unbound ratio of each compound determined in Test Example 1, and a Kp,uu value was calculated from the ratio of the unbound compound concentrations in the brain/plasma. A brain penetration property was evaluated on the basis of the calculated Kp value and Kp,uu value (Tables 1 to 4). Specifically, a compound showing a Kp value of 0.1 or more was judged to have a brain penetration property, and a compound showing a Kp,uu value of 0.3 or more was judged to have an excellent brain penetration property (Varadharajan, S., et al. (2015) J Pharm Sci 104, 1197-1206). In Table 4, “N/A” in the column “Kp,uu value” means that the value was unmeasured.

[2] = test system: NIH/3T3_CCDC6-RET cells implanted in the brain; test: Evaluation of drug efficacy in brain tumor implantation model; type: in vivo, nude mice (BALB/cAJcl-nu/nu); conditions: oral 50 mg/kg/day, twice a day for 16 consecutive days from Day 5; NIH/3T3_CCDC6-RET brain implant, nude mice
Description: Antitumor evaluation was performed in models with tumors implanted in the brain.
The growth inhibitory effect was confirmed by using NIH/3T3 cells (NIH/3T3_CCDC6-RET cells) in which luciferase and CCDC6-RET fusion protein were forced to be expressed for gene transfer. Six-week-old male nude mice (BALB/cAJcl-nu/nu, CLEA Japan, Inc.) were fixed on a brain stereotaxic instrument, and 2.5×10^4 cells per mice were implanted at a site 0.5 mm anteriorly from the bregma, 2 to 2.2 mm to the right and 3.5 mm deep. The day of implantation was defined as Day 0, luciferin (150 mg/kg) was administered intraperitoneally on Day 4, and intensity of luminescence (photons/sec) was measured using an IVIS Imaging System (Lumina II, PerkinElmer).
From the next day (Day 5), compounds were administered twice a day for 16 consecutive days. Each compound was suspended in 0.5% HPMC/0.1N hydrochloric acid and administered orally at 50 mg/kg/day. To confirm tumor growth, intensity of luminescence was measured at intervals of 3 or 4 days by the method described above.
However, since a humane endpoint due to tumor growth was applied to the drug non-administration group (control group), statistical evaluation was performed by Dunnett's test using the measurement value on Day 14.

**Q.** For `COCc1ccc(NC(=O)c2c(C#CCN3CCCCC3)n(C3(C)CC3)c3ncnc(N)c23)cc1` [Example 11, 4-amino-N-[4-(methoxymethyl)phenyl]-7-(1-methylcyclopropyl)-6-(3-(piperidin-1-yl)prop-1-yn-1-yl)-7H-pyrrolo[2,3-d]pyrimidine-5-carboxamide], which Kp at 1 h [1] is on record?
**A.** 1.36

**Q.** With `COCc1ccc(NC(=O)c2c(C#CC3CCOCC3)n(C3(C)CC3)c3ncnc(N)c23)cc1` [Example 13, 4-amino-N-[4-(methoxymethyl)phenyl]-7-(1-methylcyclopropyl)-6-((tetrahydro-2H-pyran-4-yl)ethynyl)-7H-pyrrolo[2,3-d]pyrimidine-5-carboxamide] as the compound, how does the Kp at 1 h [1] read?
**A.** 2.08

**Q.** What about the Kp uu at 1 h [1] of the same compound?
**A.** 0.891

**Q.** For `COCc1ccc(NC(=O)c2c(OC[C@H]3CCCO3)n(C3(C)CC3)c3ncnc(N)c23)cc1` [Example 7, (R)-4-amino-N-[4-(methoxymethyl)phenyl]-7-(1-methylcyclopropyl)-6-((tetrahydrofuran-2-yl)methoxy)-7H-pyrrolo[2,3-d]pyrimidine-5-carboxamide], which Kp at 1 h [1] is on record?
**A.** 1.63

**Q.** And the Kp uu at 1 h [1]?
**A.** 0.608

**Q.** For `COCc1ccc(NC(=O)c2c(C#CCN(C)C)n(C3(C)CC3)c3ncnc(N)c23)cc1` [Example 6, 4-amino-6-[3-(dimethylamino)prop-1-yn-1-yl]-N-[4-(methoxymethyl)phenyl]-7-(1-methylcyclopropyl)-7H-pyrrolo[2,3-d]pyrimidine-5-carboxamide], which Kp at 1 h [1] is on record?
**A.** 0.969

**Q.** What about the Kp uu at 1 h [1] of the same compound?
**A.** 0.922

**Q.** Which Kp at 1 h [1] does the source give for `COCc1ccc(NC(=O)c2c(C#Cc3cnn(C)c3)n(C3(C)CC3)c3ncnc(N)c23)cc1` [Example 4, 4-amino-N-[4-(methoxymethyl)phenyl]-6-((1-methyl-1H-pyrazol-4-yl)ethynyl)-7-(1-methylcyclopropyl)-7H-pyrrolo[2,3-d]pyrimidine-5-carboxamide] here?
**A.** 1.44

**Q.** What about the Kp uu at 1 h [1] of the same compound?
**A.** 1.2

**Q.** For `COCc1ccc(NC(=O)c2c(C#CCN3CCCC3)n(C3(C)CC3)c3ncnc(N)c23)cc1` [Example 12, 4-amino-N-[4-(methoxymethyl)phenyl]-7-(1-methylcyclopropyl)-6-(3-(pyrrolidin-1-yl)prop-1-yn-1-yl)-7H-pyrrolo[2,3-d]pyrimidine-5-carboxamide], which Kp at 1 h [1] is on record?
**A.** 1.02

**Q.** What about the Kp uu at 1 h [1] of the same compound?
**A.** 1.45

**Q.** With `COCc1ccc(NC(=O)c2c(C#CCC(C)(C)O)n(C3(C)CC3)c3ncnc(N)c23)cc1` [Example 14, 4-amino-6-(4-hydroxy-4-methylpent-1-yn-1-yl)-N-[4-(methoxymethyl)phenyl]-7-(1-methylcyclopropyl)-7H-pyrrolo[2,3-d]pyrimidine-5-carboxamide] as the compound, how does the Kp at 1 h [1] read?
**A.** 0.352

**Q.** And the Kp uu at 1 h [1]?
**A.** 0.242

**Q.** Which Kp at 1 h [1] does the source give for `COCc1ccc(NC(=O)c2c(C#CC3CCN(C)CC3)n(C3(C)CC3)c3ncnc(N)c23)cc1` [Example 3, 4-amino-N-[4-(methoxymethyl)phenyl]-7-(1-methylcyclopropyl)-6-[(1-methylpiperidin-4-yl)ethynyl]-7H-pyrrolo[2,3-d]pyrimidine-5-carboxamide] here?
**A.** 0.772

**Q.** What about the Kp uu at 1 h [1] of the same compound?
**A.** 0.22

**Q.** What does the source list for `CCOc1c(C(=O)Nc2ccc(COC)cc2)c2c(N)ncnc2n1C1(C)CC1` [Example 9, 4-amino-6-ethoxy-N-[4-(methoxymethyl)phenyl]-7-(1-methylcyclopropyl)-7H-pyrrolo[2,3-d]pyrimidine-5-carboxamide]?
**A.** Kp at 1 h [1]: 2.12; Kp uu at 1 h [1]: 0.914

**Q.** Which Kp at 1 h [1] does the source give for `COCc1ccc(NC(=O)c2c(C#CCN3CCSCC3)n(C3(C)CC3)c3ncnc(N)c23)cc1` [Example 18, 4-amino-N-[4-(methoxymethyl)phenyl]-7-(1-methylcyclopropyl)-6-(3-thiomorpholinoprop-1-yn-1-yl)-7H-pyrrolo[2,3-d]pyrimidine-5-carboxamide] here?
**A.** 0.685

**Q.** And the Kp uu at 1 h [1]?
**A.** 0.443

**Q.** Which Kp at 1 h [1] does the source give for `Cc1cc(NC(=O)c2cn(C(C)(C)C)c3ncnc(N)c23)n[nH]1` [compound 1, reference compound] here?
**A.** 0.056

**Q.** Which Kp at 1 h [1] does the source give for `COCc1ccc(NC(=O)c2c(C#CCC3CCOCC3)n(C3(C)CC3)c3ncnc(N)c23)cc1` [Example 15, 4-amino-N-[4-(methoxymethyl)phenyl]-7-(1-methylcyclopropyl)-6-[3-(tetrahydro-2H-pyran-4-yl)prop-1-yn-1-yl]-7H-pyrrolo[2,3-d]pyrimidine-5-carboxamide] here?
**A.** 0.74

**Q.** What about the Kp uu at 1 h [1] of the same compound?
**A.** 0.37

**Q.** Which Kp at 1 h [1] does the source give for `COCc1ccc(NC(=O)c2c(C#CCN3CCOCC3)n(C3(C)CC3)c3ncnc(N)c23)cc1` [Example 2, 4-amino-N-[4-(methoxymethyl)phenyl]-7-(1-methylcyclopropyl)-6-(3-morpholinoprop-1-yn-1-yl)-7H-pyrrolo[2,3-d]pyrimidine-5-carboxamide] here?
**A.** 1.71

**Q.** And the Kp uu at 1 h [1]?
**A.** 1.8

**Q.** What about the “inhibitory effect on growth of tumors implanted in the brain (intensity of luminescence)” value [2] of the same compound?
**A.** inhibitory effect on the growth of the implanted tumors

**Q.** Which Kp at 1 h [1] does the source give for `COCc1ccc(NC(=O)c2c(C#Cc3cn(C)nc3C)n(C3(C)CC3)c3ncnc(N)c23)cc1` [Example 1, 4-amino-6-[2-(1,3-dimethyl-1H-pyrazol-4-yl)ethynyl]-N-[4-(methoxymethyl)phenyl]-7-(1-methylcyclopropyl)-7H-pyrrolo[2,3-d]pyrimidine-5-carboxamide] here?
**A.** 0.425

**Q.** What about the Kp uu at 1 h [1] of the same compound?
**A.** 0.425

**Q.** Which results are given for `Cc1cc(NC(=O)c2cn(C3(C)CC3)c3ncnc(N)c23)n[nH]1` [compound 2, reference compound]?
**A.** Kp at 1 h [1]: 0.022; Kp uu at 1 h [1]: 0.005

**Q.** What does the source list for `COCc1ccc(NC(=O)c2c(C#Cc3ccc(N)nc3)n(C3(C)CC3)c3ncnc(N)c23)cc1` [Example 17, 4-amino-6-[(6-aminopyridin-3-yl)ethynyl]-N-[4-(methoxymethyl)phenyl]-7-(1-methylcyclopropyl)-7H-pyrrolo[2,3-d]pyrimidine-5-carboxamide]?
**A.** Kp at 1 h [1]: 0.129; Kp uu at 1 h [1]: 0.052

**Q.** Which Kp at 1 h [1] does the source give for `CC#Cc1c(C(=O)Nc2ccc(COC)cc2)c2c(N)ncnc2n1C1(C)CC1` [Example 5, 4-amino-N-[4-(methoxymethyl)phenyl]-7-(1-methylcyclopropyl)-6-(prop-1-yn-1-yl)-7H-pyrrolo[2,3-d]pyrimidine-5-carboxamide] here?
**A.** 1.56

**Q.** What about the Kp uu at 1 h [1] of the same compound?
**A.** 0.681

**Q.** For `COCc1ccc(NC(=O)c2cn(C3(C)CC3)c3ncnc(N)c23)cc1` [Example 8, 4-amino-N-[4-(methoxymethyl)phenyl]-7-(1-methylcyclopropyl)-7H-pyrrolo[2,3-d]pyrimidine-5-carboxamide], which Kp at 1 h [1] is on record?
**A.** 0.175

**Q.** And the Kp uu at 1 h [1]?
**A.** 0.1

**Q.** For `COCc1ccc(NC(=O)c2c(C#Cc3cncn3C)n(C3(C)CC3)c3ncnc(N)c23)cc1` [Example 10, 4-amino-N-(4-(methoxymethyl)phenyl)-6-((1-methyl-1H-imidazol-5-yl)ethynyl)-7-(1-methylcyclopropyl)-7H-pyrrolo[2,3-d]pyrimidine-5-carboxamide], which Kp at 1 h [1] is on record?
**A.** 0.143

**Q.** What about the Kp uu at 1 h [1] of the same compound?
**A.** 0.056

**Q.** For `Cc1cc(NC(=O)c2c(C#Cc3cnn(C)c3)n(C3(C)CC3)c3ncnc(N)c23)[nH]n1` [compound 3, reference compound], which Kp at 1 h [1] is on record?
**A.** 0.076

**Q.** Which Kp at 1 h [1] does the source give for `COCc1ccc(NC(=O)c2c(C#Cc3cccnc3)n(C3(C)CC3)c3ncnc(N)c23)cc1` [Example 16, 4-amino-N-[4-(methoxymethyl)phenyl]-7-(1-methylcyclopropyl)-6-(pyridin-3-ylethynyl)-7H-pyrrolo[2,3-d]pyrimidine-5-carboxamide] here?
**A.** 1.09

**Q.** What about the Kp uu at 1 h [1] of the same compound?
**A.** 0.653
